Assay [1] concerns MYXV. Description: Viral replication assay: progeny virus titration on permissive rabbit RK13 cells. Type of assay: cell-based, myxoma virus. The settings on record: PANC-1 and HT29 cells; LMB 0.001-0.1 μM. How it is done:
Viral titers in different human cancer cell lines were determined using a viral replication assay. Cells were seeded in 24-well plates (2×10^5 cells/well). The next day, the cells were treated with different concentrations of leptomycin B (LMB) or selinexor diluted in DMEM for 1 hour. MYXV was added to the cells and incubated for one hour at 37° C. After 1 hour, the unbound viruses were washed away using DMEM, and DMEM with LMB or selinexor was added to the cells. Cells were harvested in DMEM without LMB or selinexor at the indicated time points. After harvesting the cells, they were stored at −80° C. until processing. Samples were subjected to three freeze/thaw cycles and one-minute sonification to lyse cells and release the viral particles. Afterwards, different dilutions were prepared in DMEM and plated on rabbit RK13 and foci were counted after 48 hours using a fluorescent microscope. All assays and dilutions were performed in triplicate.

Another assay concerns DHX9. Description: Immunofluorescence staining of DHX9 localization / antiviral granules in MYXV-infected A549 cells. Type of assay: cell-based, human. As to the method:
Immunofluorescence: Cells (5×10^5-1×10^6/dish) were seeded onto glass bottom 35 mm petri dishes overnight. Depending on the experiment, the next day, cells were transfected with siRNA for 48 hours or treated with a nuclear export inhibitor, MYXV, or a combination of both. At different time points after treatment, the cells were washed with PBS three times, fixed with 2% paraformaldehyde in PBS for 12 minutes at room temperature, washed with PBS three times, and permeabilized in 0.1% Triton™ X-100 in PBS for 90 seconds at room temperature. Fixed cells were washed with PBS three times and then blocked with 3% BSA in PBS for 30 minutes at 37° C., incubated with primary antibody (1:300 dilution) for 30 minutes at 37° C., washed with PBS six times, and incubated with secondary antibodies conjugated to different Alexa Fluor. After washing again with PBS six times, samples were mounted on glass slides with Vecta Shield (Vectorlabs) containing DAPI (4′,6′-diamidino-2-phenylindole) to stain DNA in the nuclei […]. Images were captured using a fluorescence microscope (Leica).

The test system of assay [2] is MYXV. Description: MYXV reporter gene expression (GFP/TdTomato) and foci by fluorescence microscopy in human cancer cell lines. To be noted: PANC-1 and HT29 cells; pretreatment with LMB 0.001-0.1 μM; vMyx-GFP-TdTomato.

As for `CCC(=C/[C@H](C)C/C=C/C(C)=C/[C@@H](C)C(=O)[C@@H](C)[C@H](O)[C@@H](C)C/C(C)=C/C(=O)O)/C=C/[C@@H]1OC(=O)C=C[C@@H]1C` [LMB, leptomycin B], in the assay on MYXV [1], the “viral production measured by titration assay” value is on record as “significantly enhanced viral production”. Further, the “formation of DHX9 antiviral granules in the cytoplasm” value in the assay on DHX9 (A549 cells infected with vMyx-GFP, 24 h) is “blocked the formation of antiviral granules”. Also, the “cells in which DHX9 remained in the nucleus” value in the assay with DHX9 (A549 cells, LMB 1 h then vMyx-GFP MOI=1, 24 h) is given as above 80%. In addition, the “viral gene expression (early/late GFP and late TdTomato reporter protein expression)” value with MYXV [2] is “enhanced viral gene expression”.

Values taken from US20250249056A1, “CANCER THERAPIES COMPRISING A NUCLEAR EXPORT INHIBITOR AND AN ONCOLYTIC VIRUS” (priority 2022, published 2025).
